Activity calls are given as the source filed them. No cut-off for these calls is given here.
Tests used:
[1] = Toxicity in spleen of BALB/c nude mouse xenografted with human HepG2/Dox cells assessed as blood extravasation at 25 mg/kg, iv cotreated with doxorubicin every 3rd day for 12 days by hematoxylin and eosin staining based assay; type: organism-based; settings: in vivo, 288 h
Homo sapiens [2] = species: Homo sapiens; test: Effect on P-gp expression in human HepG2/Dox cells at 5 to 10 uM measured after 48 hrs by Western blot analysis; type: functional, cell-based
[3] = Toxicity in kidney of BALB/c nude mouse xenografted with human HepG2/Dox cells at 25 mg/kg, iv cotreated with doxorubicin every 3rd for 12 days by hematoxylin and eosin staining based assay; type: organism-based; settings: in vivo, 288 h
Homo sapiens [4] = test: In vivo reversal of P-gp mediated drug resistance in human HepG2/Dox cells xenografted in BALB/c nude mouse assessed as tumour growth at 25 mg/kg, ip administered daily; type: functional, organism-based
[5] = target: T1, ATP-dependent translocase ABCB1 (Homo sapiens, UniProt P08183); test: Reversal of P-gp mediated multidrug resistance in human HepG2/DOX cells assessed as potentiation of doxorubicin-induced cytotoxicity at 5 to 10 uM by MTT assay; type: cell-based; settings: TDE = time-dependent effect
[6] = target: T1, ATP-dependent translocase ABCB1; test: Reversal of P-gp mediated multidrug resistance in human MCF7/ADM cells assessed as potentiation of doxorubicin-induced cell growth inhibition at 10 uM measured after 48 hrs by MTT assay (reference value: 5%); type: cell-based
[7] = target: T1, ATP-dependent translocase ABCB1; test: Reversal of P-gp mediated multidrug resistance in human MCF7/ADM cells assessed as fold reduction in doxorubicin IC50 at 5 uM measured within 48 hrs by MTT assay relative to control; type: cell-based
Homo sapiens [8] = test: In vivo reversal of P-gp mediated drug resistance in human HepG2/Dox cells xenografted in BALB/c nude mouse assessed as reduction in tumour growth at 25 mg/kg, iv co-administered with doxorubicin every 3rd day for 12 days; type: functional, organism-based
[9] = Cytotoxicity against human HepG2/DOX cells assessed as cell viability at 10 uM measured after 48 hrs by MTT assay relative to control; type: cell-based; settings: read-out: Activity
[10] = Toxicity in BALB/c nude mouse xenografted with human HepG2/Dox cells assessed as effect on body weight at 25 mg/kg, ip administered daily; type: organism-based; settings: in vivo
[11] = target: T1, ATP-dependent translocase ABCB1; test: Reversal of P-gp mediated drug efflux in human MCF7/ADM cells assessed as increase in intracellular Rhodamine123 accumulation at 10 uM preincubated for 4 hrs followed by Rh123 addition measured after 1 hr incubation by fluorescence microscopic analysis; type: cell-based
[12] = target: T1, ATP-dependent translocase ABCB1; test: Reversal of P-gp mediated multidrug resistance in human HepG2/DOX cells assessed as potentiation of taxol-induced cytotoxicity at 5 to 10 uM by MTT assay; type: cell-based; settings: TDE = time-dependent effect
[13] = Toxicity in liver of BALB/c nude mouse xenografted with human HepG2/Dox cells at 25 mg/kg, iv cotreated with doxorubicin every 3rd day for 12 days by hematoxylin and eosin staining based assay; type: organism-based; settings: in vivo, 288 h
[14] = target: T1, ATP-dependent translocase ABCB1; test: Reversal of P-gp mediated drug efflux in human HepG2/Dox cells assessed as increase in intracellular Rhodamine123 accumulation at 5 to 10 uM preincubated for 4 hrs followed by Rh123 addition measured after 1 hr incubation by flow cytometry analysis; type: cell-based
[15] = target: T1, ATP-dependent translocase ABCB1; test: Reversal of P-gp mediated multidrug resistance in human HepG2/Dox cells assessed as potentiation of doxorubicin-induced cell growth inhibition at 10 uM measured after 48 hrs by MTT assay (reference value: 24%); type: cell-based
[16] = Toxicity in spleen of BALB/c nude mouse xenografted with human HepG2/Dox cells assessed as inflammation at 25 mg/kg, iv cotreated with doxorubicin every 3rd day for 12 days by hematoxylin and eosin staining based assay; type: organism-based; settings: in vivo, 288 h
MCF7 = test: Cytotoxicity against human MCF7 cells assessed as cell viability at 5 to 50 uM measured after 48 hrs by MTT assay; type: cell-based; settings: mcf7, 48 h
[17] = target: T1, ATP-dependent translocase ABCB1; test: Reversal of P-gp mediated drug efflux in human HepG2/Dox cells assessed as increase in intracellular Rhodamine123 accumulation at 10 uM preincubated for 4 hrs followed by Rh123 addition measured after 1 hr incubation by fluorescence microscopic analysis; type: cell-based
HepG2 = test: Cytotoxicity against human HepG2 cells assessed as cell viability at 5 to 50 uM measured after 48 hrs by MTT assay; type: cell-based; settings: hepg2, 48 h
[18] = Cytotoxicity against human AC16 cells assessed as cell survival at 50 uM measured after 72 hrs by MTT assay relative to control; type: cell-based; settings: read-out: Activity
[19] = target: T1, ATP-dependent translocase ABCB1; test: Inhibition of P-gp mediated doxorubicin efflux in human MCF7/ADM cells at 5 to 10 uM preincubated for 4 hrs followed by co-incubation with doxorubicin for 2 hrs followed by doxorubicin wash-out and measured after 120 mins incubation with drug containing culture medium by fluorescence based analysis; type: cell-based
[20] = Toxicity in lung of BALB/c nude mouse xenografted with human HepG2/Dox cells at 25 mg/kg, iv cotreated with doxorubicin every 3rd day for 12 days by hematoxylin and eosin staining based assay; type: organism-based; settings: in vivo, 288 h
[21] = Cardiotoxicity in BALB/c nude mouse xenografted with human HepG2/Dox cells assessed as effect on doxorubicin-induced myocardial cell enlargement at 25 mg/kg, iv cotreated with doxorubicin every 3rd day for 12 days by hematoxylin and eosin staining based assay; type: toxicity, organism-based; settings: in vivo, 288 h
[22] = target: T1, ATP-dependent translocase ABCB1; test: Reversal of P-gp mediated drug efflux in human HepG2/Dox cells assessed as increase in intracellular doxorubicin accumulation at 10 uM preincubated for 4 hrs followed by doxorubicin addition measured after 1 hr incubation by fluorescence microscopic analysis; type: cell-based
Homo sapiens [23] = species: Homo sapiens; test: Effect on P-gp expression in human MCF7/ADM cells at 5 to 10 uM measured after 48 hrs by Western blot analysis; type: functional, cell-based
[24] = target: T1, ATP-dependent translocase ABCB1; test: Reversal of P-gp mediated drug efflux in human HepG2/Dox cells assessed as increase in intracellular doxorubicin accumulation at 5 to 10 uM preincubated for 4 hrs followed by doxorubicin addition measured after 1 hr incubation by flow cytometry analysis; type: cell-based
[25] = target: T1, ATP-dependent translocase ABCB1; test: Reversal of P-gp mediated multidrug resistance in human HepG2/DOX cells assessed as fold reduction in doxorubicin IC50 at 10 uM measured within 48 hrs by MTT assay relative to control; type: cell-based
[26] = Toxicity in kidney of BALB/c nude mouse xenografted with human HepG2/Dox cells at 25 mg/kg, ip administered daily by hematoxylin and eosin staining based assay; type: organism-based; settings: in vivo
[27] = Cytotoxicity against human MCF7/ADM cells assessed as cell viability at 10 uM measured after 48 hrs by MTT assay relative to control; type: cell-based; settings: read-out: Activity
[28] = Toxicity in liver of BALB/c nude mouse xenografted with human HepG2/Dox cells at 25 mg/kg, ip administered daily by hematoxylin and eosin staining based assay; type: organism-based; settings: in vivo
[29] = Cardiotoxicity in BALB/c nude mouse xenografted with human HepG2/Dox cells assessed as effect on myocardial cells at 25 mg/kg, ip administered daily by hematoxylin and eosin staining based assay; type: toxicity, organism-based; settings: in vivo
[30] = target: T1, ATP-dependent translocase ABCB1; test: Inhibition of P-gp mediated doxorubicin efflux in human HepG2/Dox cells at 5 to 10 uM preincubated for 4 hrs followed by co-incubation with doxorubicin for 2 hrs followed by doxorubicin wash-out and measured after 120 mins incubation with drug containing culture medium by fluorescence based analysis; type: cell-based
[31] = Toxicity in BALB/c nude mouse xenografted with human HepG2/Dox cells assessed as effect on doxorubicin-induced body weight decline at 25 mg/kg, iv coadministered with doxorubicin every 3rd day for 12 days; type: organism-based; settings: in vivo, 288 h
[32] = target: T1, ATP-dependent translocase ABCB1; test: Reversal of P-gp mediated drug efflux in human MCF7/ADM cells assessed as increase in intracellular doxorubicin accumulation at 10 uM preincubated for 4 hrs followed by doxorubicin addition measured after 1 hr incubation by fluorescence microscopic analysis; type: cell-based
[33] = target: T1, ATP-dependent translocase ABCB1; test: Reversal of P-gp mediated multidrug resistance in human MCF7/ADM cells assessed as potentiation of doxorubicin-induced cytotoxicity at 5 to 10 uM by MTT assay; type: cell-based; settings: TDE = time-dependent effect
[34] = Toxicity in lung of BALB/c nude mouse xenografted with human HepG2/Dox cells at 25 mg/kg, ip administered daily by hematoxylin and eosin staining based assay; type: organism-based; settings: in vivo
[35] = target: T1, ATP-dependent translocase ABCB1; test: Reversal of P-gp mediated multidrug resistance in human MCF7/ADM cells assessed as fold reduction in doxorubicin IC50 at 10 uM measured within 48 hrs by MTT assay relative to control; type: cell-based
[36] = target: T1, ATP-dependent translocase ABCB1; test: Stimulation of P-gp ATPase activity (unknown origin) at 5 to 10 uM incubated for 40 mins by P-gp-Glo luminescence assay
[37] = target: T1, ATP-dependent translocase ABCB1; test: Reversal of P-gp mediated multidrug resistance in human MCF7/ADM cells assessed as potentiation of doxorubicin-induced cell growth inhibition at 10 uM measured after 48 hrs by MTT assay; type: cell-based
[38] = Cytotoxicity against human MCF7/ADM cells assessed as reduction in cell viability at 10 uM measured after 48 hrs by MTT assay; type: cell-based
[39] = Cytotoxicity against human HepG2/DOX cells assessed as reduction in cell viability at 10 uM measured after 48 hrs by MTT assay; type: cell-based
[40] = target: T1, ATP-dependent translocase ABCB1; test: Reversal of P-gp mediated multidrug resistance in human HepG2/Dox cells assessed as potentiation of doxorubicin-induced cell growth inhibition at 10 uM measured after 48 hrs by MTT assay; type: cell-based

T1 sequence (P08183 whole entry): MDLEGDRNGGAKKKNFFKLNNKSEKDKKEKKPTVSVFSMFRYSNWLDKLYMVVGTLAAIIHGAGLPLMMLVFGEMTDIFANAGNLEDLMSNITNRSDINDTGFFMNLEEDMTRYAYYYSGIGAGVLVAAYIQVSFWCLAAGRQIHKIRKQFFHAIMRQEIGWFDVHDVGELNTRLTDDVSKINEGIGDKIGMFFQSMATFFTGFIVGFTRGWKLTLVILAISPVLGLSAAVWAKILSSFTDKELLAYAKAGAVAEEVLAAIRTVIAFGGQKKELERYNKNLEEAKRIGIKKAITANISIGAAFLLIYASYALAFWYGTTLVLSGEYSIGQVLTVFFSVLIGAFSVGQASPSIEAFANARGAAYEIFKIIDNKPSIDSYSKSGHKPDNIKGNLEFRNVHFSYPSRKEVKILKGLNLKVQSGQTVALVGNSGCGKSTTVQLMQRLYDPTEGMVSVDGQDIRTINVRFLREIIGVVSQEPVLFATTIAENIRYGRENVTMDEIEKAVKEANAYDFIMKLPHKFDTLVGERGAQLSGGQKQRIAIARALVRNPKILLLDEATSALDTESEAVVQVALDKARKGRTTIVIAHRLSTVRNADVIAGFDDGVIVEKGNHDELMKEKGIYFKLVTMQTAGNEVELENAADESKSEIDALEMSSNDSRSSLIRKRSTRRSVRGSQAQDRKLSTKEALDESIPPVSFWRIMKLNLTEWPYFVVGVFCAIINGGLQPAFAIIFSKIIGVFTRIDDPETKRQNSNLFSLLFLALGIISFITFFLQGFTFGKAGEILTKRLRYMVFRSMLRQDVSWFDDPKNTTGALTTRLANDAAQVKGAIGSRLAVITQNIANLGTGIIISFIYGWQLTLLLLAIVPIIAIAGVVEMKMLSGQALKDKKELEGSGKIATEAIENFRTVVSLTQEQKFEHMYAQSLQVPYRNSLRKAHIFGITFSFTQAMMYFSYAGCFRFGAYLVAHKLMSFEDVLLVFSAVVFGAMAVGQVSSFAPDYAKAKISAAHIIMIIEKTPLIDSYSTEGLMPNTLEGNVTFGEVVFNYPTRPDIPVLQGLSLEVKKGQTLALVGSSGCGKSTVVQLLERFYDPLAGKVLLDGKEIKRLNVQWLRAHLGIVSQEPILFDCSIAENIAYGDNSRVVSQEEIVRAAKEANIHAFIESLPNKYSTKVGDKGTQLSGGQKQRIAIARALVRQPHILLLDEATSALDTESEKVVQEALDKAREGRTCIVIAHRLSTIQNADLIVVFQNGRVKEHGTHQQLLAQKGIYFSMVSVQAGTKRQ

## CCCN(C(=O)CCCCCCC(=O)N(CCC)[C@H]1CC2=CC(=O)O[C@]23C[C@H]1N1CCCC[C@H]13)[C@H]1CC2=CC(=O)O[C@]23C[C@H]1N1CCCC[C@H]13
[1]
  Activity: Toxic
Homo sapiens [2]
  Activity: inactive
[3]
  Activity: Non-Toxic
Homo sapiens [4]
  inhibition: inactive
[5]
  inhibition (INH): Tde
[6]
  inhibition at 10 µM: 78%
[7]
  fold change (FC): 10.4
Homo sapiens [8]
  inhibition: Active
[9]
  viability at 48 h, 10 µM: > 90%
[10]
  Activity: Non-Toxic
[11]
  inhibition (INH): Active
[12]
  inhibition (INH): Tde
[13]
  Activity: Non-Toxic
[14]
  inhibition (INH): Active
[15]
  inhibition at 10 µM: 85%
[16]
  Activity: Toxic
MCF7
  Activity: Non-Toxic
[17]
  inhibition (INH): Active
HepG2
  Activity: Non-Toxic
[18]
  viability at 72 h, 50 µM: 100%
[19]
  inhibition (INH): Active
[20]
  Activity: Non-Toxic
[21]
  Activity: Non-Toxic
[22]
  inhibition (INH): Active
Homo sapiens [23]
  Activity: inactive
[24]
  inhibition (INH): Active
[25]
  fold change (FC): 231
[26]
  Activity: Non-Toxic
[27]
  viability at 48 h, 10 µM: > 90%
[28]
  Activity: Non-Toxic
[29]
  Activity: Non-Toxic
[30]
  inhibition (INH): Active
[31]
  Activity: Non-Toxic
[32]
  inhibition (INH): Active
[33]
  inhibition (INH): Tde
[34]
  Activity: Non-Toxic
[35]
  fold change (FC): 126.4
[36]
  Activity: Active

## CCCN(C(=O)CCCCCCC(=O)N(CCC)[C@H]1CC2=CC(=O)O[C@@]23C[C@@H]1N1CCCC[C@@H]13)[C@H]1CC2=CC(=O)O[C@@]23C[C@@H]1N1CCCC[C@@H]13
[15]
  inhibition at 10 µM: 81%
[37]
  inhibition (INH): Not Active

## CCCN(C(=O)CCCCC(=O)N(CCC)[C@H]1CC2=CC(=O)O[C@]23C[C@H]1N1CCCC[C@H]13)[C@H]1CC2=CC(=O)O[C@]23C[C@H]1N1CCCC[C@H]13
[38]
  Activity: Toxic
[37]
  inhibition (INH): Active
[39]
  Activity: Toxic
[40]
  inhibition (INH): Active

## CCCN(C(=O)CCCCCCCCC(=O)N(CCC)[C@H]1CC2=CC(=O)O[C@]23C[C@H]1N1CCCC[C@H]13)[C@H]1CC2=CC(=O)O[C@]23C[C@H]1N1CCCC[C@H]13
[38]
  Activity: Toxic
[37]
  inhibition (INH): Active
[39]
  Activity: Toxic
[40]
  inhibition (INH): Active

## CCCN(C(=O)CCCCC(=O)N(CCC)[C@H]1CC2=CC(=O)O[C@@]23C[C@@H]1N1CCCC[C@@H]13)[C@H]1CC2=CC(=O)O[C@@]23C[C@@H]1N1CCCC[C@@H]13
[15]
  inhibition at 10 µM: 79%
[37]
  inhibition (INH): Not Active
